The target of data set [1] is HAT1/Rbap46 enzyme complex (Homo sapiens, UniProt O14929). Description: HAT1 acetyl-click assay.
The next data set has as its system A549 tumors. Description: A549 xenograft tumor growth. To be noted: 50 mg/kg and 100 mg/kg i.p. once every three days; p < 0.0001.
The target of a further data set is KAT5 (Homo sapiens, UniProt Q92993). Description: Other acetyltransferase assay. Type of data set: biochemical. To be noted: up to 100 μM.
Data set [2] can be described thus: Plasma pharmacokinetics after single i.p. injection. To be noted: female, CD1, mouse, intraperitoneal, 100 mg/kg.
The next data set deals with GCN5 (Homo sapiens, UniProt Q92830). Nature of the data set: Other acetyltransferase assay. Particulars: up to 100 μM. Type of data set: biochemical.
The next data set deals with PCAF (Homo sapiens, UniProt Q92831). Nature of the data set: Other acetyltransferase assay. Type of data set: biochemical. To be noted: up to 100 μM.
A further data set relates to FAD-dependent oxidase. Nature of the data set: FAD oxidase reaction. To be noted: 0.01 μM FAD. Type of data set: biochemical.
The target of a further data set is MYST4/KAT6b (Homo sapiens, UniProt Q8WYB5). Nature of the data set: Other acetyltransferase assay. Type of data set: biochemical. Particulars: up to 100 μM.
For data set [3] the following is noted: mouse, in vivo, ip.
The next data set has as its system H4K12Ac in A549 tumors. Description: H4K12Ac immunofluorescence in A549 tumors after single i.p. dose. Particulars: tumors harvested 24 hours later.
The subject of data set [4] is H4 lysine 5 and 12 acetylation. Description: Nascent histone H4 acetylation in hTert-HME1 cells. Type of data set: cell-based, human. Particulars: hTert-HME1, 12 hours.
The nature of data set [5]: Dose-finding tolerability, single i.p. injection. To be noted: mice.
A further data set has as its system HCC1806 cells. Description: Cell growth inhibition. The format is cell-based, human.

The results in this text go back to publication PMC10243098 (Journal of medicinal chemistry, 2023).

Chain of HAT1/Rbap46 enzyme complex (O14929 whole entry): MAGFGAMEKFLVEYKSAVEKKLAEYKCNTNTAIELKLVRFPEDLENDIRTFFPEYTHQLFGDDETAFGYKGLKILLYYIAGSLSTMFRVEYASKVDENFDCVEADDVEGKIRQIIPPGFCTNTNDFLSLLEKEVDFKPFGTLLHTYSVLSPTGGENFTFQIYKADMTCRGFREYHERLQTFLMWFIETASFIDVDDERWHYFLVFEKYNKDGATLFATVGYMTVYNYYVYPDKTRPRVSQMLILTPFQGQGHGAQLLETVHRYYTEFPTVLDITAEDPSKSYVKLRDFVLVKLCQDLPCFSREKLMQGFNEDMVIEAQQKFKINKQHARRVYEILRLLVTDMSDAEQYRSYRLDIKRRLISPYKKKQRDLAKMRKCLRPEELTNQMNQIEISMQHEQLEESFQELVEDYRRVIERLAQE
Chain of HAT1/Rbap46 enzyme complex (Q16576 whole entry partner): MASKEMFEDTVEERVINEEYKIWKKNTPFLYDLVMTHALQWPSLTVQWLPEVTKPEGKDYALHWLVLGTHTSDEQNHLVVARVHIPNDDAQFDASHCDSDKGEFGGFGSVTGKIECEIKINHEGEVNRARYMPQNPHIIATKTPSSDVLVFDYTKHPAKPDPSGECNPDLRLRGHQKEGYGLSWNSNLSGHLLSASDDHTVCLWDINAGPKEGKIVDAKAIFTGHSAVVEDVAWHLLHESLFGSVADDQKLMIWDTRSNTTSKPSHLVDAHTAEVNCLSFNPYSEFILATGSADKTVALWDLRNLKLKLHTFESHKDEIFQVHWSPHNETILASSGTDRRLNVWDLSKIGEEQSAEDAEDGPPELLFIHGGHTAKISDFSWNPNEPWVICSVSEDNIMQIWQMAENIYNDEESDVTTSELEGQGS
Chain of KAT5 (Q92993 whole entry): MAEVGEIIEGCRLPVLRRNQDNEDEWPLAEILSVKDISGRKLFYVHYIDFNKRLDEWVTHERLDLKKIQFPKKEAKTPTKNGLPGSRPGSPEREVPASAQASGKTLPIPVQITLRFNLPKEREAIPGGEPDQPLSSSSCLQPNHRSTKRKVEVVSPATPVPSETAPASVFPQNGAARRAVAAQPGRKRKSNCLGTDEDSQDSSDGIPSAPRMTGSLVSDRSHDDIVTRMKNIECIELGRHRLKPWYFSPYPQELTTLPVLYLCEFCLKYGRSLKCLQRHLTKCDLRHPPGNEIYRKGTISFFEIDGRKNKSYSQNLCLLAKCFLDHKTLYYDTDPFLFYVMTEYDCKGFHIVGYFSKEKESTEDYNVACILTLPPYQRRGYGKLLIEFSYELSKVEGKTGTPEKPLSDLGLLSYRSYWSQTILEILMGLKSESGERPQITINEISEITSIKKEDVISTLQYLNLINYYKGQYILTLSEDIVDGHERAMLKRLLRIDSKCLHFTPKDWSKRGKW
Chain of GCN5 (Q92830 whole entry): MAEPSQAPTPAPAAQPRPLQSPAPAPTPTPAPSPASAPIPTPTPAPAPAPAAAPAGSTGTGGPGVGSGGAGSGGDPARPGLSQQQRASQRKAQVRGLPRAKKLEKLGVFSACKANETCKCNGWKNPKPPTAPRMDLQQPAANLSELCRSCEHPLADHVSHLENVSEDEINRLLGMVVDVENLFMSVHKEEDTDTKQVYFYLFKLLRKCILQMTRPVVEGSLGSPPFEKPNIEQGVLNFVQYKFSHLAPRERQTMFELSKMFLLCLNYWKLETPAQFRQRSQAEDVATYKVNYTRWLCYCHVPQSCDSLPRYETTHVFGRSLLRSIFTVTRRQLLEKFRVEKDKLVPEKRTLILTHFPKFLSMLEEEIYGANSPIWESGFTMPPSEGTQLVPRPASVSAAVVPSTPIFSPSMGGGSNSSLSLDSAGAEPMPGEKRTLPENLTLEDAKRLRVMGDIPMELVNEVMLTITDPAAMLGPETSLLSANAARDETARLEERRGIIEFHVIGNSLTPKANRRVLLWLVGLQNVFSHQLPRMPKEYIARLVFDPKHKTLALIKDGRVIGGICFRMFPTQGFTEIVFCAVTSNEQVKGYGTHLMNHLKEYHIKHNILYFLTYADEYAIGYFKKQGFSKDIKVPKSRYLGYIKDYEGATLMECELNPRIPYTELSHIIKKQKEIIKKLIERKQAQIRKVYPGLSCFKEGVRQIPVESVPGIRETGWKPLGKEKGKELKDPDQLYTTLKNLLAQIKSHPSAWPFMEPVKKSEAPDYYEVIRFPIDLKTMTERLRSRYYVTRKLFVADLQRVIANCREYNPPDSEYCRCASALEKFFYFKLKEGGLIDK
Chain of PCAF (Q92831 whole entry): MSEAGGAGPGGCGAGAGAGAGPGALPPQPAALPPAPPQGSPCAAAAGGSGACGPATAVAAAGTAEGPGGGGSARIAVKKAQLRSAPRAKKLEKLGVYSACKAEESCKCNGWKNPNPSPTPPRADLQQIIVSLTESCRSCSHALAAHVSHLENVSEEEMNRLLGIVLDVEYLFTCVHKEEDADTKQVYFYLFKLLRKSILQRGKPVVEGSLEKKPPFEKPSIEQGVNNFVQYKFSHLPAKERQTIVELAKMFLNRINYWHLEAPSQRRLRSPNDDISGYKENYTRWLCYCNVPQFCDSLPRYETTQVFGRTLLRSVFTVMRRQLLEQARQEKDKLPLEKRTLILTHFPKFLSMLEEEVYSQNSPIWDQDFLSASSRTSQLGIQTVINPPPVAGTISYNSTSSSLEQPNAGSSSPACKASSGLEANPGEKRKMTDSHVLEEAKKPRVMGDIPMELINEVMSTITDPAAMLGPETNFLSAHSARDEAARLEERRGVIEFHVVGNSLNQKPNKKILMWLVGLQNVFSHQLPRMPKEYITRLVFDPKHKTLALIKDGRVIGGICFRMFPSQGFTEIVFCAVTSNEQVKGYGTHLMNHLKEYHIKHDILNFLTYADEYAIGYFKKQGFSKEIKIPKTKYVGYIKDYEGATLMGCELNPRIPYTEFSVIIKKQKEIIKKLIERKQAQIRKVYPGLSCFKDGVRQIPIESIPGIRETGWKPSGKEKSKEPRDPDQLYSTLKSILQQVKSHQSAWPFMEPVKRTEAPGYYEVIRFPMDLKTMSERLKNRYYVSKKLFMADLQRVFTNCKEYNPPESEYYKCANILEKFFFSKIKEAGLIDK
Chain of MYST4/KAT6b (Q8WYB5 whole entry): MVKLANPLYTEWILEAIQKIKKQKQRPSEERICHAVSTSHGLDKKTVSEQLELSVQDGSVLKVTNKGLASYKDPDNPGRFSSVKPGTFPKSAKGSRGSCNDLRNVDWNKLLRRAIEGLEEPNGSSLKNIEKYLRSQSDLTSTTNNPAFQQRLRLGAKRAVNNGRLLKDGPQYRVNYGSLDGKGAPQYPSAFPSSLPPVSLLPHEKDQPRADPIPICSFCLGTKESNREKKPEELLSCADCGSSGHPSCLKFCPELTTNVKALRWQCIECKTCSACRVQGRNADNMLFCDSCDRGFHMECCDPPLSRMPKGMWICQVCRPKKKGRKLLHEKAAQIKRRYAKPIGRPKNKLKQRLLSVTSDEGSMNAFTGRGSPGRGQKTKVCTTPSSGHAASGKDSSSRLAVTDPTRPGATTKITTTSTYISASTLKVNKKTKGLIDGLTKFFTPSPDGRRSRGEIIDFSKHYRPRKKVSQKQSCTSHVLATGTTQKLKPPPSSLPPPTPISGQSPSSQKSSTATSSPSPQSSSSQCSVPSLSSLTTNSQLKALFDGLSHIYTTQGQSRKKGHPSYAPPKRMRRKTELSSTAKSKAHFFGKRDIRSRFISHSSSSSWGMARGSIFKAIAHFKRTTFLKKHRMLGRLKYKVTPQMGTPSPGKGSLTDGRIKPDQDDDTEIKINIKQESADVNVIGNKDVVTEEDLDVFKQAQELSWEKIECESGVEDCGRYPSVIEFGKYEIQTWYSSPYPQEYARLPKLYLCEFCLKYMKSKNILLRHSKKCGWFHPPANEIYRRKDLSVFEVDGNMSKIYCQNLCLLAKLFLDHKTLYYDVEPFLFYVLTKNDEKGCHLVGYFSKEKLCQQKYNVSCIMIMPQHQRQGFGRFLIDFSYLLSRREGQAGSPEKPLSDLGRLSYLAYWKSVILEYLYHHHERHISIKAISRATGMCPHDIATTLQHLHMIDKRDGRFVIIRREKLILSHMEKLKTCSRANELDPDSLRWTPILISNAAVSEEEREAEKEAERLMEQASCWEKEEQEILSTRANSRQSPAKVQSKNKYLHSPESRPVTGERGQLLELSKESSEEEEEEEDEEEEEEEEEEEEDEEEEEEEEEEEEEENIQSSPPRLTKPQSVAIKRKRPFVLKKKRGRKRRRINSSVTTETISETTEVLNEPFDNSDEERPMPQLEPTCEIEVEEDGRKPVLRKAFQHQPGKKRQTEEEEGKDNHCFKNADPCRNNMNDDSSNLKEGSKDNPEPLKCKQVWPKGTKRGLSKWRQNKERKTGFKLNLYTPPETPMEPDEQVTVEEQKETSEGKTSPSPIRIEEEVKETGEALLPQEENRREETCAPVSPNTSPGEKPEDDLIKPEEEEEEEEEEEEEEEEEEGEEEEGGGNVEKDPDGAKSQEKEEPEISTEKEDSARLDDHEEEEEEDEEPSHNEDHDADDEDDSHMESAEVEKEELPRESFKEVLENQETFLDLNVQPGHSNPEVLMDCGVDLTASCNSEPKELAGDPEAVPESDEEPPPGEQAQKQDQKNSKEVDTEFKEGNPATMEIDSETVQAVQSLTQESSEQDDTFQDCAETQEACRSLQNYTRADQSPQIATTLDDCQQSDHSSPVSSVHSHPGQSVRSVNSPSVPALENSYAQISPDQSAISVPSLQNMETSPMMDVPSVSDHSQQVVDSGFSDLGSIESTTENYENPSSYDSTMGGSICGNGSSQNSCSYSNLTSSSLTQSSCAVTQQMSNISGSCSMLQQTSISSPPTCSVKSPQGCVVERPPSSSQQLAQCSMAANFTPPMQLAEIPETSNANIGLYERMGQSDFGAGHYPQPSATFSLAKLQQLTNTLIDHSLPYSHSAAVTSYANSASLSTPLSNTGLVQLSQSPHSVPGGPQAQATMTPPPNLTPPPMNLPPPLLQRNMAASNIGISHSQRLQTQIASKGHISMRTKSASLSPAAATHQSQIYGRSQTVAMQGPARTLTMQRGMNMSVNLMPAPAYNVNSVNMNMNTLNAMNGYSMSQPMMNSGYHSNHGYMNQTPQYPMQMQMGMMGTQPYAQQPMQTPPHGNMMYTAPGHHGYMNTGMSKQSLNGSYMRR

For the molecule “3-(3-(7-Chloro-8-ethyl-2,4-dioxo-3,4-dihydrobenzo[g]pteridin-10(2H)-yl)propoxy)benzonitrile [Compound 37i]”, the “HAT1 inhibitory activity (in words)” value in [1] was “interfered with enzyme inhibition”.

As for `CCc1cc2c(cc1Cl)nc1c(=O)[nH]c(=O)nc-1n2CCOCc1cccc(F)c1` [Compound 20b, 7-Chloro-8-ethyl-10-(2-((3-fluorobenzyl)oxy)ethyl)benzo[g]pteridine-2,4(3H,10H)-dione], the “HAT1 inhibitory activity (in words)” value in data set [1] is “interfered with enzyme inhibition”.

On to `CCc1cc2c(cc1Cl)nc1c(=O)[nH]c(=O)nc-1n2CCOCc1ccc(C#N)cc1` [Compound 24g, 4-((2-(7-Chloro-8-ethyl-2,4-dioxo-3,4-dihydrobenzo[g]pteridin-10(2H)-yl)ethoxy)methyl)benzonitrile], for which the “HAT1 inhibitory activity (in words)” value in data set [1] is reported as “interfered with enzyme inhibition”.

On to `Cc1cc2nc3c(=O)[nH]c(=O)nc-3n(C[C@H](O)[C@H](O)[C@H](O)COP(=O)(O)OP(=O)(O)OC[C@H]3O[C@@H](n4cnc5c(N)ncnc54)[C@H](O)[C@@H]3O)c2cc1C` [FAD, flavin-adenine-dinucleotide, reference compound], for which the “HAT1 inhibitory activity (in words)” value in data set [1] is listed as “no detectable inhibitory activity”.

As to `Cc1cc2nc3c(=O)[nH]c(=O)nc-3n(C[C@H](O)[C@H](O)[C@H](O)COP(=O)(O)O)c2cc1C` [FMN, flavin-mononucleotide, reference compound], the “HAT1 inhibitory activity (in words)” value in [1] is on record as “no detectable inhibitory activity”.

Turning to `CCc1cc2c(cc1Cl)nc1c(=O)[nH]c(=O)nc-1n2CCOCC(C)C` [JG-2016, 7-Chloro-8-ethyl-10-(2-isobutoxyethyl)benzo[g]pteridine-2,4(3H,10H)-dione], the “tumor growth versus vehicle” value in the data set on A549 tumors is “significantly impaired tumor growth”. Also, the “inhibitory activity towards KAT5” value at KAT5 is listed as “minimal or undetectable inhibitory activity”. In data set [2], this molecule came in with a concentration at 72 h of 2050 ± 233 nM. The “inhibitory activity towards GCN5” value against GCN5 was “minimal or undetectable inhibitory activity”. Further, at PCAF, the “inhibitory activity towards PCAF” value is “minimal or undetectable inhibitory activity”. Further, the “inhibition of FAD-dependent oxidase” value in the data set on FAD-dependent oxidase is on record as “no significant inhibitory activity”. The “inhibitory activity towards MYST4/KAT6b” value on MYST4/KAT6b is “minimal or undetectable inhibitory activity”. In addition, the “tolerated dose with minimal toxicity” value in data set [3] is recorded as “up to 250 mg/kg”. The “H4K12Ac signal in tumors” value in the data set on H4K12Ac in A549 tumors is “dose-dependent decrease”. For the same molecule, the “H4 lysine 5 and 12 acetylation in cells” value in [4] is “dose-dependent inhibition”. For the same molecule, in data set [5], the “dose at which signs of distress were observed” value came to 500 mg/kg.

Turning to `CC(=O)SCCNC(=O)CCNC(=O)[C@H](O)C(C)(C)COP(=O)(O)OP(=O)(O)OC[C@H]1O[C@@H](n2cnc3c(N)ncnc32)[C@H](O)[C@@H]1OP(=O)(O)O` [acetyl-CoA], in data set [1], the “preference of enzyme for native cofactor versus 4-pentynoyl-CoA” value is on record as more than 100 fold. For the same molecule, the “suppression of pentynoylated product” value in [1] (1 μM acetyl-CoA, 100 μM 4-pentynoyl-CoA) is “completely suppressed”.

For the molecule `Cc1cc2nc3[nH]c(=O)[nH]c(=O)c3nc2cc1C` [di-methyl-alloxazine, reference compound], the “HAT1 inhibitory activity (in words)” value in data set [1] is “no detectable inhibitory activity”.

For the molecule `Cc1cc2nc3c(=O)[nH]c(=O)nc-3n(C[C@H](O)[C@H](O)[C@H](O)CO)c2cc1N(C)C` [roseoflavin, reference compound], the “cell growth inhibitory activity (in words)” value in the data set with HCC1806 cells is given as “strong cell growth inhibitory properties”. Besides, the “HAT1 inhibitory activity (in words)” value in data set [1] is “inactive”.
